Structures can show the parent of a compound that is named as a salt.
Test system: HCT116 cells
Assay: HCT116 cytotoxic activity assay (Alamar Blue, 72 h)
Assay type: cell-based
Conditions: Homo sapiens, HCT-116, 72 h compound exposure, greater than 500 nM but less than or equal to 2 μM
Experimental: Representative compounds of this invention were tested for cytotoxicity using the above-described assay procedure with the following results: […]

For Nc1nc(Nc2ccc(Oc3cncnc3)cc2)cc(-c2ccccc2)n1 [Example 61, 6-phenyl-N4*-[4-(pyrimidin-5-yloxy)phenyl] pyrimidine-2,4-diamine], which IC50 is on record?
The IC50 was 500 to 2000 nM.

For Nc1nc(Nc2ccc(Oc3ccnc(O)c3)cc2)cc(-c2ccccc2)n1 [Example 65, 4-{4-[(2-amino-6-phenylpyrimidin-4-yl)amino]phenoxy}pyridin-2-ol], which IC50 is on record?
Its IC50 is 500 to 2000 nM.

Which IC50 does the source give for N#Cc1ccc(Oc2ccc(Nc3cc(-c4ccccc4)nc(N)n3)cc2)cc1 [Example 68, 4-{4-[(2-amino-6-phenylpyrimidin-4-yl)amino]phenoxy} benzonitrile] here?
Its IC50 is 500 to 2000 nM.

For CNC(=O)c1cc(Oc2ccc(Nc3cc(-c4ccccc4)nc(N)n3)cc2)ccn1 [Example 70, 4-{4-[(2-amino-6-phenylpyrimidin-4-yl)amino]phenoxy}-N-methylpyridine-2-carboxamide], which IC50 is on record?
Its IC50 is 500 to 2000 nM.

For NC(=O)c1cc(Oc2ccc(Nc3cc(-c4ccc(F)cc4)nc(N)n3)cc2)ccn1 [Example 73, 4-(4-{[2-amino-6-(4-fluorophenyl)pyrimidin-4-yl]amino}phenoxy) pyridine-2-carboxamide], which IC50 is on record?
Its IC50 is 500 to 2000 nM.

Which IC50 does the source give for N#Cc1cc(Oc2ccc(Nc3cc(-c4ccc(F)cc4)nc(N)n3)cc2)ccn1 [Example 75, 4-(4-{[2-amino-6-(4-fluorophenyl)pyrimidin-4-yl]amino}phenoxy) pyridine-2-carbonitrile] here?
The IC50 was 500 to 2000 nM.

How did the IC50 turn out when Nc1nc(Nc2ccc(Oc3ccnc(C(=O)NC4CN5CCC4CC5)c3)cc2)cc(-c2ccccc2)n1 (stereo not shown) [Example 79, 4-{4-[(2-amino-6-phenylpyrimidin-4-yl)amino]phenoxy}-N-1-azabicyclo[2.2.2]oct-3-ylpyridine-2-carboxamide trifluoroacetate] was run?
Its IC50 is 500 to 2000 nM.

How did the IC50 turn out when CN(C)CCOc1cc(Oc2ccc(Nc3cc(-c4ccccc4)nc(N)n3)cc2)ccn1 [Example 85, N^4-[4-({2-[2-(dimethylamino)ethoxy]pyridin-4-yl}oxy)phenyl]-6-phenylpyrimidine-2,4-diamine] was run?
The IC50 was 500 to 2000 nM.

Cc1ccc(Cc2ccc(Nc3cc(-c4ccccc4)nc(N)n3)cc2)cc1 [Example 89, N^4-[4-(4-methylbenzyl)phenyl]-6-phenylpyrimidine-2,4-diamine] was tested. Which IC50 did it give?
Its IC50 is 500 to 2000 nM.

Which IC50 does the source give for COc1ccc(Cc2ccc(Nc3cc(-c4ccccc4)nc(N)n3)cc2)cc1 [Example 90, N^4-[4-(4-methoxybenzyl)phenyl]-6-phenylpyrimidine-2,4-diamine] here?
The IC50 was 500 to 2000 nM.

For Nc1nc(Nc2ccc(Cc3ccc(F)cc3)cc2)cc(-c2ccccc2)n1 [Example 91, N^4-[4-(4-fluorobenzyl)phenyl]-6-phenylpyrimidine-2,4-diamine], which IC50 is on record?
Its IC50 is 500 to 2000 nM.

For Nc1nc(Nc2ccc(Oc3ccnc(CNC(=O)N4CCOCC4)c3)cc2)cc(-c2ccccc2)n1 [Example 100, N-[(4-{4-[(2-amino-6-phenylpyrimidin-4-yl)amino]phenoxy}pyridin-2-yl)methyl]morpholine-4-carboxamide], which IC50 is on record?
Its IC50 is 500 to 2000 nM.

How did the IC50 turn out when Nc1nc(Nc2ccc(Oc3cc(N4CCOCC4)ccn3)cc2)cc(-c2ccccc2)n1 [Example 105, N4*-{4-[(4-morpholin-4-ylpyridin-2-yl)oxy]phenyl}-6-phenylpyrimidine-2,4-diamine] was run?
Its IC50 is 500 to 2000 nM.

Which IC50 does the source give for CN1CCN(c2ccnc(Oc3ccc(Nc4cc(-c5ccccc5)nc(N)n4)cc3)c2)CC1 [Example 107, N4*-(4-{[4-(4-methylpiperazin-1-yl)pyridin-2-yl]oxy}phenyl)-6-phenylpyrimidine-2,4-diamine] here?
The IC50 was 500 to 2000 nM.

Which IC50 does the source give for COCCN(CCOC)c1ccnc(Oc2ccc(Nc3cc(-c4ccccc4)nc(N)n3)cc2)c1 [Example 109, N4*-[4-({4-[bis(2-methoxyethyl)amino]pyridin-2-yl}oxy)phenyl]-6-phenylpyrimidine-2,4-diamine] here?
The IC50 was 500 to 2000 nM.

Nc1nc(Nc2ccc(Oc3ccnc(C(F)(F)F)c3)cc2)cc(-c2ccc(Cl)c(Cl)c2)n1 [Example 112, 6-(3,4-dichlorophenyl)-N4*-(4-{[2-(trifluoromethyl)pyridin-4-yl]oxy}phenyl)pyrimidine-2,4-diamine] was tested. Which IC50 did it give?
The IC50 was 500 to 2000 nM.

For Nc1nc(Nc2ccc(Oc3ccnc(Cl)c3)cc2)cc(-c2cccc([N+](=O)[O-])c2)n1 [Example 115, N4*-{4-[(2-chloropyridin-4-yl)oxy]phenyl}-6-(3-nitrophenyl)pyrimidine-2,4-diamine], which IC50 is on record?
The IC50 was 500 to 2000 nM.

Same assay, conditions: Homo sapiens, HCT-116, 72 h compound exposure, greater than 2 μM

Which IC50 does the source give for CNC(=O)c1cc(Oc2ccc(Nc3cc(-c4ccc(F)cc4)nc(N)n3)cc2)ccn1 [Example 71, 4-(4-{[2-amino-6-(4-fluorophenyl)pyrimidin-4-yl]amino}phenoxy)-N-methylpyridine-2-carboxamide] here?
Its IC50 is > 2000 nM.

How did the IC50 turn out when CNC(=O)c1cc(Oc2cccc(Nc3cc(-c4ccc(F)cc4)nc(N)n3)c2)ccn1 [Example 72, 4-(3-{[2-amino-6-(4-fluorophenyl)pyrimidin-4-yl]amino}phenoxy)-N-methylpyridine-2-carboxamide] was run?
The IC50 was > 2000 nM.

For NC(=O)c1cc(Oc2cccc(Nc3cc(-c4ccc(F)cc4)nc(N)n3)c2)ccn1 [Example 74, 4-(3-{[2-amino-6-(4-fluorophenyl)pyrimidin-4-yl]amino}phenoxy) pyridine-2-carboxamide], which IC50 is on record?
Its IC50 is > 2000 nM.

For CNC(=O)c1cc(Oc2cccc(Nc3cc(-c4ccc(OC)cc4)nc(N)n3)c2)ccn1 [Example 77, 4-(3-{[2-amino-6-(4-methoxyphenyl)pyrimidin-4-yl]amino}phenoxy)-N-methylpyridine-2-carboxamide], which IC50 is on record?
Its IC50 is > 2000 nM.

With CCCCOc1cc(Oc2ccc(Nc3cc(-c4ccccc4)nc(N)n3)cc2)ccn1 [Example 83, N4*-{4-[(2-butoxypyridin-4-yl)oxy]phenyl}-6-phenylpyrimidine-2,4-diamine] as the compound, how does the IC50 read?
The IC50 was > 2000 nM.

Which IC50 does the source give for CC(=O)c1ccc(Oc2ccc(Nc3cc(-c4ccccc4)nc(N)n3)cn2)cc1 [Example 87, 1-[4-({5-[(2-amino-6-phenylpyrimidin-4-yl)amino]pyridin-2-yl}oxy)phenyl]ethanone] here?
The IC50 was > 2000 nM.

With Nc1nc(Nc2ccc(Oc3cc(N4CCCCC4)ccn3)cc2)cc(-c2ccccc2)n1 [Example 106, 6-phenyl-N4*-{4-[(4-piperidin-1-ylpyridin-2-yl)oxy]phenyl}pyrimidine-2,4-diamine] as the compound, how does the IC50 read?
Its IC50 is > 2000 nM.

How did the IC50 turn out when Nc1nc(Nc2ccc(Oc3cc(N(CCO)CCO)ccn3)cc2)cc(-c2ccccc2)n1 [Example 108, 2,2′-[(2-{4-[(2-amino-6-phenylpyrimidin-4-yl)amino]phenoxy}pyridin-4-yl)imino]diethanol] was run?
Its IC50 is > 2000 nM.

How did the IC50 turn out when CCC(CC)NCc1cc(Oc2ccc(Nc3cc(-c4ccccc4)nc(N)n3)cc2)ccn1 [Example 110, N4*-{4-[(2-{[(1-ethylpropyl)amino]methyl}pyridin-4-yl)oxy]phenyl}-6-phenylpyrimidine-2,4-diamine] was run?
The IC50 was > 2000 nM.

Which IC50 does the source give for Nc1nc(Nc2ccc(Oc3ccnc(CNC4CCCCC4)c3)cc2)cc(-c2ccccc2)n1 [Example 111, N4*-[4-({2-[(cyclohexylamino)methyl]pyridin-4-yl}oxy)phenyl]-6-phenylpyrimidine-2,4-diamine] here?
The IC50 was > 2000 nM.

Same assay, conditions: Homo sapiens, HCT-116, 72 h compound exposure, less than or equal to 500 nM

Nc1ccc(Oc2ccc(Nc3cc(-c4ccccc4)nc(N)n3)cc2)cc1 [Example 62, N^4-[4-(4-aminophenoxy)phenyl]-6-phenylpyrimidine-2,4-diamine] was tested. Which IC50 did it give?
The IC50 was ≤ 500 nM.

With Nc1nc(Nc2ccc(Oc3cc(Br)ccn3)cc2)cc(-c2ccccc2)n1 [Example 63, N4*-{4-[(4-bromopyridin-2-yl)oxy]phenyl}-6-phenylpyrimidine-2,4-diamine] as the compound, how does the IC50 read?
Its IC50 is ≤ 500 nM.

Which IC50 does the source give for Nc1nc(Nc2ccc(Oc3ccnc(F)c3)cc2)cc(-c2ccccc2)n1 [Example 64, N4*-{4-[(2-fluoropyridin-4-yl)oxy]phenyl}-6-phenylpyrimidine-2,4-diamine trifluoroacetate] here?
The IC50 was ≤ 500 nM.

With Nc1nc(Nc2ccc(Oc3ccnc(Cl)c3)cc2F)cc(-c2ccccc2)n1 [Example 66, N4*-{4-[(2-chloropyridin-4-yl)oxy]-2-fluorophenyl}-6-phenylpyrimidine-2,4-diamine] as the compound, how does the IC50 read?
Its IC50 is ≤ 500 nM.

For Nc1nc(Nc2ccc(Oc3ccnc(C(F)(F)F)c3)cc2F)cc(-c2ccccc2)n1 [Example 67, N4*-(2-fluoro-4-{[2-(trifluoromethyl)pyridin-4-yl]oxy}phenyl)-6-phenylpyrimidine-2,4-diamine], which IC50 is on record?
Its IC50 is ≤ 500 nM.

NC(=O)c1cc(Oc2ccc(Nc3cc(-c4ccccc4)nc(N)n3)cc2)ccn1 [Example 69, 4-{4-[(2-amino-6-phenylpyrimidin-4-yl)amino]phenoxy} pyridine-2-carboxamide] was tested. Which IC50 did it give?
Its IC50 is ≤ 500 nM.

How did the IC50 turn out when CNC(=O)c1cc(Oc2cccc(Nc3cc(-c4cccc(OC)c4)nc(N)n3)c2)ccn1 [Example 76, 4-(3-{[2-amino-6-(3-methoxyphenyl)pyrimidin-4-yl]amino}phenoxy)-N-methylpyridine-2-carboxamide] was run?
Its IC50 is ≤ 500 nM.

With Nc1nc(Nc2ccc(Oc3ccnc(C(=O)NCC(O)CO)c3)cc2)cc(-c2ccccc2)n1 (stereo not shown) [Example 80, 4-{4-[(2-amino-6-phenylpyrimidin-4-yl)amino]phenoxy}-N-(2,3-dihydroxypropyl)pyridine-2-carboxamide] as the compound, how does the IC50 read?
The IC50 was ≤ 500 nM.

With COCCOc1cc(Oc2ccc(Nc3cc(-c4ccccc4)nc(N)n3)cc2)ccn1 [Example 84, N^4-(4-{[2-(2-methoxyethoxy)pyridin-4-yl]oxy}phenyl)-6-phenylpyrimidine-2,4-diamine] as the compound, how does the IC50 read?
The IC50 was ≤ 500 nM.

Nc1ccc(Cc2ccc(Nc3cc(-c4ccccc4)nc(N)n3)cc2)cc1 [Example 88, N^4*-[4-(4-aminobenzyl)phenyl]-6-phenylpyrimidine-2,4-diamine] was tested. Which IC50 did it give?
Its IC50 is ≤ 500 nM.

For CN(C)C(=O)NCc1cc(Oc2ccc(Nc3cc(-c4ccccc4)nc(N)n3)cc2)ccn1 [Example 99, N′-[(4-{4-[(2-amino-6-phenylpyrimidin-4-yl)amino]phenoxy}pyridin-2-yl)methyl]-N,N-dimethylurea], which IC50 is on record?
The IC50 was ≤ 500 nM.

How did the IC50 turn out when Nc1nc(Nc2cccc(Oc3ccnc(Cl)c3)c2)cc(-c2ccccc2)n1 [Example 113, N4*-{3-[(2-chloropyridin-4-yl)oxy]phenyl}-6-phenylpyrimidine-2,4-diamine] was run?
The IC50 was ≤ 500 nM.

Which IC50 does the source give for Nc1nc(Nc2ccc(Oc3ccnc(Cl)c3)cc2)cc(-c2ccc(F)cc2)n1 [Example 114, N4*-{4-[(2-chloropyridin-4-yl)oxy]phenyl}-6-(4-fluorophenyl)pyrimidine-2,4-diamine] here?
The IC50 was ≤ 500 nM.
